Assay results: BindingDB's records for doi:10.3109/14756366.2012.658786 (Yeungnam University, 2013)

Biological target: Fatty acid synthase (Gallus gallus, UniProt P12276)
Assay: FAS Inhibitory Assay
Conditions: pH 7; 37 °C
Description: To each microtube (final volume: 100 μL), FAS was added (20-30 μg protein) in a buffer containing 100 mM potassium phosphate (pH 7.0), 2.5 mM dithiothreitol and 2.0 mM EDTA with or without test compounds. The mixtures were preincubated at 37°C for 60 min and the reaction was started by the addition of a substrate mixture containing 0.25 mM NADPH, 0.4 nmol of malonyl CoA and 0.02 μCi of [3H] acetyl CoA. Following incubation at 37°C for 10 min, the reaction was terminated with 60% HClO4. Fatty acids were extracted with 1 mL of hexane and incorporation of radioactivity into the fatty acids was assessed by scintillation counting [Na et al., Bioorg. Med. Chem. Lett., 16:4738-4742].

Sequence of Fatty acid synthase (P12276 whole entry): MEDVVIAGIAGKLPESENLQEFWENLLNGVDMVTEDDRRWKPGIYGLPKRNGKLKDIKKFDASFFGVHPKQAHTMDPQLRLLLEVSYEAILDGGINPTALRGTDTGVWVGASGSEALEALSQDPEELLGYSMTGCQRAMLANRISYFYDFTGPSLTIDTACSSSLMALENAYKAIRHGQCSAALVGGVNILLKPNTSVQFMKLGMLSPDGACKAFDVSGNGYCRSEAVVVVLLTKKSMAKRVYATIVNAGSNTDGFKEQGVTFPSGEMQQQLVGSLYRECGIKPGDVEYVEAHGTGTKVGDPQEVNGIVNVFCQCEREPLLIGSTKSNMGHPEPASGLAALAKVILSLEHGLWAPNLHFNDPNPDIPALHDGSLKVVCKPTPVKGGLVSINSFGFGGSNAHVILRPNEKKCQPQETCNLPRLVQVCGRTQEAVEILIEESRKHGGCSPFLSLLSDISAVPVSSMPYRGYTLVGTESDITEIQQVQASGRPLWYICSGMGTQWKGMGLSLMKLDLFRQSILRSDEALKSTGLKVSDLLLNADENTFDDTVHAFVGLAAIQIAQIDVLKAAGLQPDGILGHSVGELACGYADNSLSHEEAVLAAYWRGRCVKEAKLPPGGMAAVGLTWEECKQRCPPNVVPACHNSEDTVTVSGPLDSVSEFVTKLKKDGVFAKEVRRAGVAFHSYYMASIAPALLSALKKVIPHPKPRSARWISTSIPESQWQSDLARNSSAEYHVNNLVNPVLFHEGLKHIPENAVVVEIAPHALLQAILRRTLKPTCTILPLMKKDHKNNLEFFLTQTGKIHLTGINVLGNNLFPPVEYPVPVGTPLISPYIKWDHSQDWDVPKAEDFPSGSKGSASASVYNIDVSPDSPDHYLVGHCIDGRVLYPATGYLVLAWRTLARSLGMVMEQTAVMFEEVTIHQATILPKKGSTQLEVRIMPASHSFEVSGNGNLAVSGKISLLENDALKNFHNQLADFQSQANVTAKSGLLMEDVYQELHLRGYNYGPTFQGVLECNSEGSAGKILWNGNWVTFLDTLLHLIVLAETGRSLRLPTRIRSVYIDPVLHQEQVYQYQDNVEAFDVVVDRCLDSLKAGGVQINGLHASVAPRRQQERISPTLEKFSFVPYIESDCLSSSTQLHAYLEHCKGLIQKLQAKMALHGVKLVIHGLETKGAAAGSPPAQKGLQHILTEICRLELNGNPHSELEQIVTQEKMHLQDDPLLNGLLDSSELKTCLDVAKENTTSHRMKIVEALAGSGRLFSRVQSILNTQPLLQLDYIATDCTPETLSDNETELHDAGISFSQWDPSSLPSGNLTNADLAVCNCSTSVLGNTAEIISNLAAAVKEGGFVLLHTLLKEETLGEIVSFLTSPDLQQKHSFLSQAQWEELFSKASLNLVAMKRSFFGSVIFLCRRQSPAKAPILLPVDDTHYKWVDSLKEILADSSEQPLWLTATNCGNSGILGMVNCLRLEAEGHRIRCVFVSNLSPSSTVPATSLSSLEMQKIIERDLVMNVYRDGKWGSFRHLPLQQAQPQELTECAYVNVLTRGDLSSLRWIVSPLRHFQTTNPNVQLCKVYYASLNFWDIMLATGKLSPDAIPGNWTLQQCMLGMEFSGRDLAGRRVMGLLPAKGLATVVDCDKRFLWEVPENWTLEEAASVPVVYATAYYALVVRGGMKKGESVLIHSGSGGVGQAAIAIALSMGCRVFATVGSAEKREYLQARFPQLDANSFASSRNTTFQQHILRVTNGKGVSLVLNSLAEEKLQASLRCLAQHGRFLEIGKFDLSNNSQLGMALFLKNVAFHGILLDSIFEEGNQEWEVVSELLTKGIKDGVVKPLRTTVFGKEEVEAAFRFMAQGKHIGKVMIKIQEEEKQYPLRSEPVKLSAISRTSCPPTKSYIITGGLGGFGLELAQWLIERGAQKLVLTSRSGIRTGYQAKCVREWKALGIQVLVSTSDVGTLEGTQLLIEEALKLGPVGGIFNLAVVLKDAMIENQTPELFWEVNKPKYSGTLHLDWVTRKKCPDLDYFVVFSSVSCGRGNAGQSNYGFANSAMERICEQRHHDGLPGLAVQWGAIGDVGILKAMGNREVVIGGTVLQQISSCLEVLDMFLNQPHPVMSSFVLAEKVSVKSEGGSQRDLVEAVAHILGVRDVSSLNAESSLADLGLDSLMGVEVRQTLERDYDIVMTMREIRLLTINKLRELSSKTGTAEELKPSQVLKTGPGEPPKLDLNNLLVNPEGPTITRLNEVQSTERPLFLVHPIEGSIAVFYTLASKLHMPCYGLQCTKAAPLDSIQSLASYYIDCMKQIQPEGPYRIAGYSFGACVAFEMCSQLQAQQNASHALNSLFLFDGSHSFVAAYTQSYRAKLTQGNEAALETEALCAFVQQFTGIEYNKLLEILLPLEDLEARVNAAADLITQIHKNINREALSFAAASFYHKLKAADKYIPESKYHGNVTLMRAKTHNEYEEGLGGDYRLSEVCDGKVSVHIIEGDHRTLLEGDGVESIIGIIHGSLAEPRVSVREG

SMILES | IC50 [µM]
O=c1cc(-c2ccc(O)c(O)c2)oc2cc(O)cc(O)c12 [2-(3,4-dihydroxyphenyl)-5,7-dihydroxy-4H-chromen-4-one] | 62.5
CCCCCC/C=C\CCCCCCCc1cccc(O)c1C(=O)O [6-{8(Z)-pentadecenyl}salicylic acid] | 17.1
C/C=C/C/C=C/CCC(=O)[C@H]1O[C@H]1C(N)=O | 13

Further lines, results first:

IC50 [µM] | SMILES
10.5 | CCCCCC/C=C\CCCCCCCCCc1cccc(O)c1C(=O)O [6-[10'(Z)-heptade-cenyljsalicylic acid]
9.2 | CCCCC/C=C/C/C=C/CCCCCCCc1cccc(O)c1C(=O)O [Ginkgolic acid C17:2 (2)]
